Counter-ions that a name gives are not always drawn.
What was measured:
[1] = target: activated human C1 (Homo sapiens, UniProt P09871); assay: Test Code 026 (C1 inhibitor); type: biochemical; conditions: serial twofold dilution assay; higher well number indicates higher activity
Method: (§1) An active inhibitor protects C2 from C1 and C4; (ii) Test Code 035 (C3-C9 inhibitor)--This test determines the ability of the late components of human complement (C3-C9) to lyse EAC 142 in the presence of appropriate dilutions of the test compound. An active inhibitor protects EAC 142 from lysis by human C3-C9; (iii) Cap 50 Test--Here, appropriate amounts of the test compound are added to a pool of guinea pig or human serum in vitro, after which the undiluted serum capillary tube assay of U.S. Pat. No. 3,876,376 is run. The concentration of compound inhibiting 50% is reported; and (iv) Guinea Pig Intraperitoneal Test (GPIP)--Guinea pigs weighing about 300 g are dosed intraperitoneally (i.p.) with 200 mg/kg of the test compound dissolved in saline and adjusted to pH 7-8. Approximately 0.4 ml blood samples, taken by orbital sinus puncture 2 hours and 6 hours after injections, are collected directly into centrifuge tubes; 5 ml blood samples, taken by decapitation 24 hours after injection, are collected directly into beakers. The samples are allowed to clot, centrifuged, and the resultant sera are assayed for complement activity using the capillary complement assay. Percent inhibition is calculated by comparison with simultaneous controls. The results of the GPIP appear in Table I together with results of Test Code 026, 035 and Cap 50.

[2] = test system: late components of human complement (C3-C9); assay: Test Code 035 (C3-C9 inhibitor), lysis of EAC 142; type: biochemical; conditions: serial twofold dilution assay; higher well number indicates higher activity
Method: as §1

[3] = test system: human serum complement; conditions: both in vitro and in vivo; cited from earlier work

| Compound | C1 026 Wells [1] [Wells] | C-Late 035 Wells [2] [Wells] | anticomplementary activity, judged by reduction in total hemolytic complement activity [3] |
| --- | --- | --- | --- |
| O=S(=O)(O)OC[C@H]1O[C@@H](Sc2cccc(S[C@@H]3O[C@H](COS(=O)(=O)O)[C@@H](O[C@H]4O[C@H](COS(=O)(=O)O)[C@@H](OS(=O)(=O)O)[C@H](OS(=O)(=O)O)[C@H]4OS(=O)(=O)O)[C@H](OS(=O)(=O)O)[C@H]3OS(=O)(=O)O)c2)[C@H](OS(=O)(=O)O)[C@@H](OS(=O)(=O)O)[C@@H]1O[C@H]1O[C@H](COS(=O)(=O)O)[C@@H](OS(=O)(=O)O)[C@H](OS(=O)(=O)O)[C@H]1OS(=O)(=O)O [1,3-Bis-[4-O-α-D-glucopyranosyl-β-D-glucopyranosyl-1-thio]-phenylene, tetradecakis(H-sulfate),tetradecasodium salt] | 12 | 0.9 |  |
| O=S(=O)(O)OC[C@H]1O[C@@H](Sc2ccc(-c3ccc(S[C@@H]4O[C@H](COS(=O)(=O)O)[C@@H](O[C@H]5O[C@H](COS(=O)(=O)O)[C@@H](OS(=O)(=O)O)[C@H](OS(=O)(=O)O)[C@H]5OS(=O)(=O)O)[C@H](OS(=O)(=O)O)[C@H]4OS(=O)(=O)O)cc3)cc2)[C@H](OS(=O)(=O)O)[C@@H](OS(=O)(=O)O)[C@@H]1O[C@H]1O[C@H](COS(=O)(=O)O)[C@@H](OS(=O)(=O)O)[C@H](OS(=O)(=O)O)[C@H]1OS(=O)(=O)O [4,4'-Bis-[4-O-α-D-glucopyranosyl-β-D-glucopyranosyl-1-thio]-1,1'-biphenylene, tetradecakis(H-sulfate), tetradecasodium salt] | 13 | 2 |  |
| pentosanpolysulfoester |  |  | anticomplementary activity |
